In the supplement of paper PMC10307832:

Experiments:
Assay in all cases: relative viability (nuclei count vs DMSO), 5 days (fraction); higher = more cells survive
[1] = compound: Cc1ccc(NC(=O)c2ccc(CN3CCN(C)CC3)cc2)cc1Nc1nccc(-c2cccnc2)n1 [Imatinib] + O=C(c1cc(Cc2n[nH]c(=O)c3ccccc23)ccc1F)N1CCN(C(=O)C2CC2)CC1 [Olaparib] (partner 8 µM)
How it was run: (§1)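 The day after seeding in 1536-well plates, lung cancer cell lines were treated by pin tool with a single drug, or with a fixed anchor-drug dose together with five library-drug doses (not always all listed) in √10 steps. After 5 days, a combined fix-and-stain solution (final 0.05% Triton X-100, 1% formaldehyde, 1 ug/ml Hoechst) was added. Nuclei counted on 4× images gave relative viability as treated counts over vehicle counts, reported as the median of duplicate plates.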

[2] = compound: Cc1ccc(NC(=O)c2ccc(CN3CCN(C)CC3)cc2)cc1Nc1nccc(-c2cccnc2)n1 [Imatinib] + Nc1nc2[nH]cc(CCc3ccc(C(=O)N[C@@H](CCC(=O)O)C(=O)O)cc3)c2c(=O)[nH]1 [Pemetrexed] (partner 0.2 µM)
How it was run: as §1

[3] = compound: Cc1ccc(NC(=O)c2ccc(CN3CCN(C)CC3)cc2)cc1Nc1nccc(-c2cccnc2)n1 [Imatinib] + COc1cc2c(Oc3ccc(NC(=O)C4(C(=O)Nc5ccc(F)cc5)CC4)cc3F)ccnc2cc1OCCCN1CCOCC1 [Foretinib] (partner 0.25 µM)
How it was run: as §1

[4] = compound: Cc1ccc(NC(=O)c2ccc(CN3CCN(C)CC3)cc2)cc1Nc1nccc(-c2cccnc2)n1 [Imatinib]
How it was run: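 Viability is treated-well nuclei as a fraction of vehicle-well nuclei, reported as the median across plates. Before counting, lung cancer cell lines were kept overnight at 37 °C in 1536-well plates, pinned with five √10-spaced library-drug doses on vehicle-anchored plates, and left 5 days without medium change, then fixed, permeabilised and Hoechst-stained in one step, imaged at 4× and counted by MetaXpress. A plate passed only if control CV was below 25% and at least one doubling occurred.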

Cell Line	relative viability ([1]; first compound 0.02 µM)	relative viability ([1]; first compound 0.06325 µM)	relative viability ([1]; first compound 0.2 µM)	relative viability ([1]; first compound 0.6325 µM)	relative viability ([1]; first compound 2 µM)	relative viability ([2]; first compound 0.02 µM)	relative viability ([2]; first compound 0.06325 µM)	relative viability ([2]; first compound 0.2 µM)	relative viability ([2]; first compound 0.6325 µM)	relative viability ([3]; first compound 0.02 µM)	relative viability ([3]; first compound 0.2 µM)	relative viability ([3]; first compound 0.6325 µM)	relative viability ([3]; first compound 2 µM)	relative viability ([4]; 0.06325 µM)	relative viability ([4]; 0.2 µM)	relative viability ([4]; 0.6325 µM)	relative viability ([4]; 2 µM)	relative viability ([2]; first compound 2 µM)	relative viability ([3]; first compound 0.06325 µM)	relative viability ([4]; 0.02 µM)
NCI-H2405	0.933	0.947	0.919	0.875	0.922	1.15	1.12	1.13	1.02	1.03	1.05	0.986	1.02	0.721	1.02	0.927	1			
PC-14	0.274	0.229	0.357	0.221	0.244	0.143	0.16	0.135	0.131	0.934	1.08	0.934	0.983	0.726	1.17	1	0.953	0.137	0.84	1.08
LK-2	0.725	0.629	0.711		0.92	0.272	0.29	0.296		1.18	1.65	0.83	1.32	0.805	1.08	0.678	0.97	0.272	0.908	1.05
HCC-366	0.427	0.336	0.389	0.335	0.346	0.178	0.197	0.189	0.173	0.998	0.942	0.982	1.01	0.856	1.06	1.07	0.988	0.128		0.978
LCLC-97TM1	0.539		0.269	0.419	0.33	0.183		0.197	0.165	0.934	1.03	0.927	0.905		1.01	1	1.03	0.184		1.08
NCI-H596	0.648	0.811	0.681	0.665	0.747	0.497	0.507	0.509	0.466	0.948	0.931	0.855	0.832	0.903	1.03	1.01	0.907	0.487		
HCC-827	0.741	0.724	0.762	0.639	0.628	0.283	0.285	0.249	0.267	1.05	1.05	1.04	0.962	1.04		1.05	1.03	0.255	1.04	
NCI-H647	0.803	0.67	0.792	0.588	0.495	0.18	0.183	0.192	0.202	1.51	1.57	1.25	1.06	1.05	1.12	0.991	0.962	0.158	1.27	0.976
LXF-289	1.1		1.35		1.13	0.91		0.88	0.893	1.01	1.14	0.848	0.95	0.998	1.1	1.01	0.976	0.923	0.914	1.06
NCI-H1734	0.621		0.605	0.648	0.639	0.402		0.425	0.377	1.06	0.939	0.776	0.87		1.09	0.996	0.876	0.388	1.2	1.04
SW 1573	0.62	0.704	0.425	0.485	0.559	0.898	0.354		0.86	1.04	1.03	0.893	0.908	0.79	1.13	1.01	1.02	0.811	0.469	1.16
NCI-H650	0.432	0.405	0.392	0.431	0.383	0.986		0.834	0.951	1.07	1.03	1.17	0.977	0.779	1.02	1.1	0.824	0.875	0.78	1
UMC-11	0.352	0.514	0.366	0.41	0.301	0.906	0.972	0.864	0.811	0.981	0.973	1.14	1.11	0.987	1.03	1.1	0.941	0.781	1.31	1.03
H3255	0.576	0.572	0.565	0.566	0.612	0.536	0.499	0.554	0.565	0.791		0.914	0.709	0.749	0.893	1.06	0.899	0.573	0.405	1.05
NCI-H2126	0.892	0.742	0.92	0.985	0.924	0.667	0.524	0.704	0.634	1.36	1.31	1.02		0.696	1.08	0.955	0.936	0.725	0.958	1.02
NCI-H2085	0.765	0.759	0.825	0.784	0.742	0.837	0.892	0.917			1.02	1.01	0.972	0.826	1.01	1.04	1.02	0.834	0.941	
NCI-H2342	0.44	0.404	0.466	0.473	0.426	0.688	0.665	0.834	0.738	1.15	1.18	0.97	0.966	0.891	0.972	0.943	0.998		1.25	0.896
